Reference: patent publication US20240197686A1, “ANTI-TUMORAL EFFECTIVE BENZIMIDAZOLE ZINC COMPLEXES” (INONU UNIVERSITESI REKTORLUGU, priority 2022, published 2024)
Entries after “also recorded” stand apart in the source; their conditions may differ.

How the values were obtained:
[1] = test system: lung, liver, kidney tissues; experiment: Histology (H-E, light microscope) of lung, liver, kidney tissues of tumour developed nude rats; type: in vivo; details: for Histopathological damage in lung, liver and kidney tissues (overall): rat, in vivo
Source text: After […] operation; lung, liver, kidney tissues were taken and 10% were fixed in formaldehyde, and the sections prepared after their histological tissue follow-up procedures were examined with a light microscope.

Lung Cancer = details: lung cancer treatment; cited from earlier work

In the case of `N.N.[Cl][Pt][Cl]` [Cisplatin, cis-diamminedichloroplatinum II], the Kidney histology ([1]; H-E sections) is reported as “narrowing in glomerular Bowman's space (arrow), tubule epithelial damage; also recorded: Glomerular collapse and vascular congestion”, the Liver histology ([1]; H-E sections) is reported as “hemorage (aster) in parenchymal area, vascular congestion; also recorded: hemorrhagic fields and vascular congestion in parenchyma” and the Lung histology ([1]; H-E sections) is reported as “Secretion (aster) in bronchiole lumen, vascular congestion; also recorded: Secretion accumulations and vascular congestion”. The “Histopathological damage in lung, liver and kidney tissues (overall)” value [1] was “caused tissue damages”, the “Histopathological damage in lung, liver and kidney tissues (overall)” value ([1]; listed as cisplatin) was “causes histopathological damages in lung, liver and kidney tissues” and the surviving (Lung Cancer) was 6 months.
